Values of other authors as cited in patent US20030113362A1, “Unique ascorbic acid derivatives with essential amino acids, nonessential amino acid and amino acids that do not occur in protein: the process for their preparation and use in research, medicine, physiology, pharmacology, nutrition, pharmaceuticals, and for cosmetic, commercial and industrial …” (priority 2001, published 2003).

Settings: compared with ascorbic acid; test conditions not given

SMILES: O=C1O[C@H]([C@@H](O)CO)C(O)=C1OS(=O)(=O)O [L-ascorbate 2-sulphate]
- stability, times more stable than ascorbic acid: 20 times
